pIC50: −log10 of the molar value.
Target: T1, Proteinase-activated receptor 1 (Homo sapiens, UniProt P25116)
T1 sequence (P25116 whole entry): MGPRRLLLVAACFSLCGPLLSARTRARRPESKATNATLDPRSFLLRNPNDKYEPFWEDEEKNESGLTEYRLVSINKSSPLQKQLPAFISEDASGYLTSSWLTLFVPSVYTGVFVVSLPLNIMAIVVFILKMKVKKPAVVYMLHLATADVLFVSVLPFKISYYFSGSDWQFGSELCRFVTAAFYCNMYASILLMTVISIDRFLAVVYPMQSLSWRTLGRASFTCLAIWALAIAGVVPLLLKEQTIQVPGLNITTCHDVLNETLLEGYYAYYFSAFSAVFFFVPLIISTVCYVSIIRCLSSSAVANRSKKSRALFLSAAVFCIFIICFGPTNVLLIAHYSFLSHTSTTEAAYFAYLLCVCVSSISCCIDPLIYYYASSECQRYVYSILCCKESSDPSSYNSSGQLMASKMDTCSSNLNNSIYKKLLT
Assay: PAR-1 FLIPR Assay
Description: Media was then removed from the cells, incubated with 33 ul of Calcium-5 dye in assay buffer (Hank's buffer containing 20 mM HEPES, 0.04% Chaps and 2.5 mM Probenecid) for 60 minutes at 37° C. 2 uL of varying concentrations of compound in 40% DMSO in assay buffer (final DMSO concentration is 2.3%) were then added to the cells and incubated at 25° C. for 30 minutes. […] The range of peptide was from 1.5-3 μM. The final volume was 40 uL/well, with 2% DMSO. […] The data were analyzed by taking the peak signal over a portion of the range of the 60 scans and dividing this signal by the minimum signal for that same range.

pIC50: 8.16
Compound: Cc1nc(/C=C/[C@@H]2[C@@H]3[C@@H](C)OC(=O)[C@]3(C(N)=O)CC(F)(F)[C@H]2C)ccc1-c1ccccc1C#N [US9701669, 4]

— BindingDB's records for patent US9701669 (Merck Sharp & Dohme Corp, 2017)
